Data taken from the NIST ThermoML archive (doi:10.1021/je201334p).

Key:
[1] = refractive index (Na D-line) (dimensionless); xn = mol fraction of the nth substance listed; conditions: 101 kPa, Liquid, Standard Abbe refractometry
[2] = xn = mol fraction of the nth substance listed; conditions: 101 kPa, Liquid; for speed of sound: Sing-around technique in a fixed-path interferometer; for mass density: Vibrating tube method

COS(=O)(=O)[O-].C[n+]1ccccc1 [1-methylpyridinium methylsulfate] + O
Conditions	mass density, 288.15 K [kg/m3]	mass density, 298.15 K [kg/m3]	mass density, 308.15 K [kg/m3]	refractive index, 288.15 K	refractive index, 298.15 K	refractive index, 308.15 K	speed of sound, 288.15 K [m/s]	speed of sound, 298.15 K [m/s]	speed of sound, 308.15 K [m/s]
[1], x2 = 0	–	–	–	1.51603	1.5134	1.51077	–	–	–
[1], x2 = 0.0574	–	–	–	1.51462	1.51199	1.50937	–	–	–
[1], x2 = 0.073	–	–	–	1.51423	1.51159	1.50895	–	–	–
[1], x2 = 0.1111	–	–	–	1.51315	1.51052	1.50794	–	–	–
[1], x2 = 0.1927	–	–	–	1.51059	1.50803	1.50539	–	–	–
[1], x2 = 0.2941	–	–	–	1.50679	1.50426	1.5017	–	–	–
[1], x2 = 0.4005	–	–	–	1.50177	1.49921	1.49665	–	–	–
[1], x2 = 0.4996	–	–	–	1.49567	1.49314	1.49057	–	–	–
[1], x2 = 0.6077	–	–	–	1.48632	1.48384	1.48134	–	–	–
[1], x2 = 0.7064	–	–	–	1.47388	1.47142	1.46886	–	–	–
[1], x2 = 0.8058	–	–	–	1.45378	1.45141	1.44897	–	–	–
[1], x2 = 0.901	–	–	–	1.41884	1.4167	1.41447	–	–	–
[1], x2 = 0.9497	–	–	–	1.38778	1.38593	1.38397	–	–	–
[1], x2 = 0.9645	–	–	–	1.37506	1.37336	1.37158	–	–	–
[2], x2 = 0	1352.86	1346.12	1339.37	–	–	–	1901.1	1875.8	1852.4
[2], x2 = 0.0574	1350.36	1343.61	1336.86	–	–	–	1900.5	1876	1852.3
[2], x2 = 0.073	1349.61	1342.85	1336.11	–	–	–	1901.4	1876.4	1852.7
[2], x2 = 0.1111	1347.74	1340.98	1334.23	–	–	–	1901.9	1877.4	1853.7
[2], x2 = 0.1927	1343.32	1336.56	1329.82	–	–	–	1903.2	1879.2	1855.8
[2], x2 = 0.2941	1336.61	1329.85	1323.12	–	–	–	1906.5	1882.6	1859.2
[2], x2 = 0.4005	1327.54	1320.8	1314.09	–	–	–	1909.5	1886.2	1863.4
[2], x2 = 0.4996	1316.5	1309.79	1303.09	–	–	–	1912.2	1889.5	1867
[2], x2 = 0.6077	1299.41	1292.74	1286.07	–	–	–	1913.2	1891	1868.9
[2], x2 = 0.7064	1276.09	1269.51	1262.91	–	–	–	1906.8	1885.4	1863.4
[2], x2 = 0.8058	1237.51	1231.17	1224.76	–	–	–	1878	1859.2	1837.7
[2], x2 = 0.901	1168.89	1163.31	1157.51	–	–	–	1782.3	1772.7	1760.4
[2], x2 = 0.9497	1107.24	1102.67	1097.68	–	–	–	1670.4	1673.5	1673.4
[2], x2 = 0.9645	1081.91	1077.85	1073.27	–	–	–	1622.5	1633.3	1637.2
